From US6737383B1, “Herbicidal oxadiazolidines” (priority 1999, dated 2004)

How the values were obtained:
[1] = tested on: bamyardgrass; experiment: Test B flood test barnyardgrass; format: in vivo, Echinochloa crus-galli
Method in brief: (§1)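 Flood test on plants grown to the 2-leaf stage; treated plants kept in greenhouse twelve to sixteen days, then visually rated against controls on a 0 (no effect) to 10 (complete control) scale.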

[2] = tested on: giant foxtail; experiment: Test B pre/postemergence giant foxtail; format: in vivo, Setaria faberii
Method in brief: (§2)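 Response is a visual 0-to-10 score relative to untreated plants, where 0 means no effect and 10 means complete control, taken twelve to sixteen days after application. Treatments went onto soil at planting and onto foliage of 1- to 4-leaf plants, using a surfactant-containing non-phytotoxic solvent.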

[3] = tested on: pigweed; experiment: Test B pre/postemergence pigweed; format: in vivo, Amaranthus retroflexus
Method in brief: as §2

[4] = tested on: bedstraw; experiment: Test B pre/postemergence bedstraw; format: in vivo, Galium aparine
Method in brief: as §2

[5] = tested on: surinam grass; experiment: Test B pre/postemergence surinam grass; format: in vivo, Brachiaria decumbens
Method in brief: as §2

[6] = tested on: wild oat; experiment: Test B pre/postemergence wild oat; format: in vivo, Avena fatua
Method in brief: as §2

[7] = tested on: morningglory; experiment: Test B pre/postemergence morningglory; format: in vivo, Ipomoea hederacea
Method in brief: as §2

[8] = tested on: smallflower flatsedge; experiment: Test B flood test smallflower flatsedge; format: in vivo, Cyperus difformis
Method in brief: as §1

[9] = tested on: rape; experiment: Test B pre/postemergence rape; format: in vivo, Brassica napus
Method in brief: as §2

[10] = tested on: cocklebur; experiment: Test B pre/postemergence cocklebur; format: in vivo, Xanthium strumarium
Method in brief: as §2

[11] = tested on: crabgrass; experiment: Test B pre/postemergence crabgrass; format: in vivo, Digitaria sanguinalis
Method in brief: as §2

[12] = tested on: rice; experiment: Test B flood test rice; format: in vivo, Oryza sativa; details: Rate 500 g/ha, Pre-emergence section of Table B; 0 to 10 scale (0 no effect, 10 complete control)
Method in brief: as §1

[13] = tested on: sugar beet; experiment: Test B pre/postemergence sugar beet; format: in vivo, Beta vulgaris
Method in brief: as §2

[14] = tested on: blackgrass; experiment: Test B pre/postemergence blackgrass; format: in vivo, Alopecurus myosuroides
Method in brief: as §2

[15] = tested on: corn; experiment: Test B pre/postemergence corn; format: in vivo, Zea mays
Method in brief: as §2

[16] = tested on: velvetleaf; experiment: Test B pre/postemergence velvetleaf; format: in vivo, Abutilon theophrasti
Method in brief: as §2

[17] = Rate 62 g/ha, flood test species, Pre-emergence, visual evaluation after twelve to sixteen days
[18] = Rate 125 g/ha, under heading Pre-emergence, flood test species, visual evaluation after twelve to sixteen days
[19] = Rate 250 g/ha, Pre-emergence (flood test species), scale 0 to 10, 0 is no effect, 10 is complete control
[20] = Rate 500 g/ha, Pre-emergence section of Table B, 0 to 10 scale (0 no effect, 10 complete control)
[21] = Postemergence, Rate 62 g/ha, scale of 0 to 10, 0 is no effect, 10 is complete control
[22] = Postemergence, Rate 125 g/ha, scale 0 to 10, 0 is no effect, 10 is complete control
[23] = Postemergence, Rate 500 g/ha, scale of 0 to 10 where 0 is no effect and 10 is complete control
[24] = Preemergence, Rate 62 g/ha, scale 0 to 10 (0 no effect, 10 complete control)
[25] = Preemergence, Rate 125 g/ha, scale 0 to 10, 0 is no effect, 10 is complete control
[26] = Preemergence, Rate 500 g/ha, scale of 0 to 10 where 0 is no effect and 10 is complete control
[27] = Rate 250 g/ha, Postemergence, scale of 0 to 10 where 0 is no effect and 10 is complete control

Structure (SMILES): CCCCCCn1c(=O)on(C(=O)N(c2ccccc2)C(C)C)c1=O [Compound 558]
- Plant response rating, Barnyardgrass (0 to 10 scale, 0 is no effect, 10 is complete control) [1, 17]: 0
- Barnyardgrass plant response rating (0 to 10 scale, 0 is no effect, 10 is complete control) [1, 18]: 0
- Barnyardgrass plant response rating [1, 19]: 2
- Barnyardgrass plant response rating [1, 20]: 6
- Giant foxtail plant response rating [2, 21]: 2
- Giant foxtail plant response rating [2, 22]: 2
- Plant response rating, Giant foxtail [2, 23]: 8
- Giant foxtail plant response rating [2, 24]: 8
- Giant foxtail plant response rating [2, 25]: 9
- Giant foxtail plant response rating (0 to 10 scale) ([2]; Preemergence, Rate 250 g/ha): 9
- Giant foxtail plant response rating [2, 26]: 10
- Plant response rating, Giant foxtail [2, 27]: 5
- Redroot pigweed plant response rating [3, 21]: 0
- Plant response rating, Redroot pigweed [3, 23]: 0
- Redroot pigweed plant response rating [3, 24]: 0
- Redroot pigweed plant response rating [3, 25]: 0
- Redroot pigweed plant response rating (0 to 10 scale) ([3]; Preemergence, Rate 250 g/ha): 2
- Redroot pigweed plant response rating [3, 26]: 2
- Plant response rating, Redroot pigweed [3, 27]: 0
- Bedstraw plant response rating [4, 22]: 0
- Bedstraw plant response rating [4, 24]: 0
- Bedstraw plant response rating [4, 25]: 0
- Bedstraw plant response rating (0 to 10 scale) ([4]; Preemergence, Rate 250 g/ha): 0
- Bedstraw plant response rating [4, 26]: 0
- Plant response rating, Bedstraw [4, 27]: 0
- B. signalgrass plant response rating [5, 21]: 0
- Plant response rating, B. signalgrass [5, 23]: 3
- B. signalgrass plant response rating [5, 24]: 0
- B. signalgrass plant response rating [5, 25]: 0
- B. signalgrass plant response rating (0 to 10 scale, 0 is no effect, 10 is complete control) ([5]; Preemergence, Rate 250 g/ha): 3
- B. signalgrass plant response rating [5, 26]: 6
- Plant response rating, B. signalgrass [5, 27]: 0
- Wild oats plant response rating [6, 21]: 0
- Plant response rating, Wild oats [6, 23]: 0
- Wild oats plant response rating [6, 24]: 0
- Wild oats plant response rating [6, 25]: 0
- Wild oats plant response rating (0 to 10 scale) ([6]; Preemergence, Rate 250 g/ha): 0
- Wild oats plant response rating [6, 26]: 2
- Plant response rating, Wild oats [6, 27]: 0
- Morningglory plant response rating [7, 21]: 10
- Morningglory plant response rating [7, 22]: 10
- Plant response rating, Morningglory [7, 23]: 10
- Morningglory plant response rating [7, 24]: 0
- Morningglory plant response rating [7, 25]: 0
- Morningglory plant response rating (0 to 10 scale) ([7]; Preemergence, Rate 250 g/ha): 0
- Morningglory plant response rating [7, 26]: 0
- Plant response rating, Morningglory [7, 27]: 10
- Plant response rating, S. Flatsedge (0 to 10 scale, 0 is no effect, 10 is complete control) [8, 17]: 0
- S. Flatsedge plant response rating (0 to 10 scale, 0 is no effect, 10 is complete control) [8, 18]: 0
- S. Flatsedge plant response rating [8, 19]: 0
- S. Flatsedge plant response rating [8, 20]: 0
- Rape plant response rating [9, 21]: 0
- Rape plant response rating [9, 22]: 0
- Plant response rating, Rape [9, 23]: 2
- Rape plant response rating [9, 24]: 0
- Rape plant response rating [9, 25]: 0
- Rape plant response rating (0 to 10 scale) ([9]; Preemergence, Rate 250 g/ha): 2
- Rape plant response rating [9, 26]: 2
- Plant response rating, Rape [9, 27]: 0
- Cocklebur plant response rating [10, 21]: 0
- Cocklebur plant response rating [10, 22]: 0
- Plant response rating, Cocklebur [10, 23]: 0
- Cocklebur plant response rating [10, 24]: 0
- Cocklebur plant response rating [10, 25]: 0
- Cocklebur plant response rating (0 to 10 scale) ([10]; Preemergence, Rate 250 g/ha): 0
- Cocklebur plant response rating [10, 26]: 0
- Plant response rating, Cocklebur [10, 27]: 0
- Crabgrass plant response rating [11, 21]: 0
- Crabgrass plant response rating [11, 22]: 0
- Plant response rating, Crabgrass [11, 23]: 8
- Crabgrass plant response rating [11, 24]: 8
- Crabgrass plant response rating [11, 25]: 9
- Crabgrass plant response rating (0 to 10 scale) ([11]; Preemergence, Rate 250 g/ha): 9
- Crabgrass plant response rating [11, 26]: 9
- Plant response rating, Crabgrass [11, 27]: 8
- Rice plant response rating [12]: 0
- Sugarbeets plant response rating [13, 21]: 0
- Plant response rating, Sugarbeets [13, 23]: 2
- Sugarbeets plant response rating [13, 24]: 0
- Sugarbeets plant response rating [13, 25]: 0
- Sugarbeets plant response rating (0 to 10 scale) ([13]; Preemergence, Rate 250 g/ha): 0
- Sugarbeets plant response rating [13, 26]: 2
- Plant response rating, Sugarbeets [13, 27]: 2
- Blackgrass plant response rating [14, 21]: 0
- Blackgrass plant response rating [14, 22]: 0
- Plant response rating, Blackgrass [14, 23]: 2
- Blackgrass plant response rating [14, 24]: 2
- Blackgrass plant response rating [14, 25]: 2
- Blackgrass plant response rating (0 to 10 scale) ([14]; Preemergence, Rate 250 g/ha): 6
- Blackgrass plant response rating [14, 26]: 9
- Plant response rating, Blackgrass [14, 27]: 2
- Corn plant response rating [15, 21]: 0
- Corn plant response rating [15, 22]: 0
- Plant response rating, Corn [15, 23]: 0
- Corn plant response rating [15, 24]: 0
- Corn plant response rating [15, 25]: 0
- Corn plant response rating (0 to 10 scale) ([15]; Preemergence, Rate 250 g/ha): 0
- Corn plant response rating [15, 26]: 0
- Plant response rating, Corn [15, 27]: 0
- Velvetleaf plant response rating [16, 21]: 0
- Plant response rating, Velvetleaf [16, 23]: 2
- Velvetleaf plant response rating [16, 24]: 0
- Velvetleaf plant response rating [16, 25]: 0
- Velvetleaf plant response rating (0 to 10 scale) ([16]; Preemergence, Rate 250 g/ha): 0
- Velvetleaf plant response rating [16, 26]: 0
- Plant response rating, Velvetleaf [16, 27]: 0
